Target: endothelial lipase (EL) (Homo sapiens (Human), UniProt Q9Y5X9)
Experiment: Endothelial lipase (EL) enzymatic assay with fluorescent substrate A10070 in DMPG vesicles
Format: biochemical
Settings: conditioned media from HT-1080 cells overexpressing endogenous EL; 20 min preincubation at 37° C.
Description: Endothelial lipase activity was measured using a fluorescent substrate, A10070, (Invitrogen, CA) doped into an artificial vesicle containing DMPG (Avanti Polar Lipids) as the excipient. Vesicles were prepared by combining 285 μL, of 1 mM DMPG in a 1:1 mixture of MeOH and CHCl3 with 15 μL, of 1 mM A10070 in a 1:1 mixture of MeOH and CHCl3. The mixture was dried under nitrogen and resuspended in 150 μL, of 50 mM HEPES pH 8.0 buffer containing 100 mM NaCl and 0.2 mM EDTA. The sample was allowed to sit at rt for 15 min and then was sonicated 3×4 mins on ice with a Branson Sonicator using duty cycle 1. This preparation provides vesicles with a mole fraction of 0.05 for the FRET substrate.
The enzymatic assay was measured using white, opaque 96-well half area plates. Each well contained 60 μL, of assay buffer (50 mM HEPES pH 8.0, 50 mM NaCl and 1 mM CaCl2) and 2 ul of a DMSO solution containing compound of interest. Conditioned media obtained from HT-1080 cells, which were transformed by RAGE technology (Athersys) to overexpress endogenous EL, was added and the reaction was allowed to incubate for 20 min at 37° C. with gentle agitation. The reaction was started by the addition of 20 μL, of a 1:4 dilution of vesicles. The final total reaction volume was 100 μL. The reaction rates were measured on a Gemini plate reader with an excitation wavelength of 488 nm and an emission of 530 nm. Readings were taken every 20 seconds for 10 min with agitation between each reading. The slope of the linear portion of the readout was used to calculate the rate of the reaction.

Chain of endothelial lipase (EL) (Q9Y5X9 21-500): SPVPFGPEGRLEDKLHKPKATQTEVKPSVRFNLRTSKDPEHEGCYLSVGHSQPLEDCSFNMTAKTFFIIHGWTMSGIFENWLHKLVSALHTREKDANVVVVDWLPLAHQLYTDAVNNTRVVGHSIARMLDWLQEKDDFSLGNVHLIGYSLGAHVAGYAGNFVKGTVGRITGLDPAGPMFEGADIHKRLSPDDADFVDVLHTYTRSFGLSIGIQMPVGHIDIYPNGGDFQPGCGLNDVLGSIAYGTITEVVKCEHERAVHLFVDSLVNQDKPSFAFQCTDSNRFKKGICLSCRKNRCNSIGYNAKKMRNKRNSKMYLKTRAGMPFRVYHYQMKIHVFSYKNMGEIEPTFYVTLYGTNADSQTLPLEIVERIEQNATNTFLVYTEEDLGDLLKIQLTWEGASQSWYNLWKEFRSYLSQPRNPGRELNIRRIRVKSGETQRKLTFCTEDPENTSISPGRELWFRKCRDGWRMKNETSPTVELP

Row | IC50 | SMILES
1 | 17 nM | CC(=O)NC(c1nnc(C2CN(CC(C)(C)C)C2)o1)c1nc2ccc(-c3ccccc3)cc2s1 (centres unmarked) [Example 26, N-((5-(1-neopentylazetidin-3-yl)-1,3,4-oxadiazol-2-yl)(6-phenylbenzo[d]thiazol-2-yl)methyl)acetamide]
2 | < 10 nM | CC(=O)NC(c1nnc(CNS(N)(=O)=O)o1)c1nc2ccc(-c3ccccc3)cc2s1 (centres unmarked) [Example 12, N-((6-phenylbenzo[d]thiazol-2-yl)(5-((sulfamoylamino)methyl)-1,3,4-oxadiazol-2-yl)methyl)acetamide]
3 | < 10 nM | CCC(=O)NC(c1nnc(CNS(N)(=O)=O)o1)c1nc2ccc(-c3ccc(F)nc3)cc2s1 (centres unmarked) [Example 5, N-((6-(6-fluoropyridin-3-yl)benzo[d]-thiazol-2-yl)(5-M-((sulfamoyl-amino)-methyl)-1,3,4-oxadiazol-2-yl)methyl)-propionamide]
4 | < 10 nM | CCOC(=O)CNC(=O)NC(c1nnc(CNS(N)(=O)=O)o1)c1nc2ccc(-c3ccc(F)nc3)cc2s1 (centres unmarked) [Example 6, ethyl 2-(3-((6-(6-fluoropyridin-3-yl)benzo[d]-thiazol-2-yl)(5-((sulfamoyl-amino)-methyl)-1,3,4-oxadiazol-2-yl)methyl)-ureido)acetate]
5 | < 10 nM | O=C1NC(=O)C(Cc2nnc(C(NC(=O)c3ccc(C(F)(F)F)cc3)c3nc4ccc(-c5ccc(F)nc5)cc4s3)o2)S1 (centres unmarked) [Example 1, N-((5-((2,4-dioxothiazolidin-5-yl)methyl)-1,3,4-oxadiazol-2-yl)(6-(6-fluoropyridin-3-yl)benzo[d]thiazol-2-yl)methyl)-4-(trifluoromethyl)benzamide]
6 | < 10 nM | CC(=O)NC(c1nnc(CNC(=O)OC(C)(C)C)o1)c1nc2ccc(-c3ccccc3)cc2s1 (centres unmarked) [Example 17, tert-butyl ((5-(acetamido(6-phenylbenzo[d]-thiazol-2-yl)methyl)-1,3,4-oxadiazol-2-yl)methyl)-carbamate]
7 | < 10 nM | CC(C)C(=O)NC(c1nnc(CNS(N)(=O)=O)o1)c1nc2ccc(-c3ccccc3)cc2s1 (centres unmarked) [Example 13, N-((6-phenylbenzo[d]-thiazol-2-yl)(5-((sulfamoylamino)-methyl)-1,3,4-oxadiazol-2-yl)methyl)-isobutyramide]
8 | < 10 nM | CC(=O)NC(c1nnc(CC2SC(=O)NC2=O)o1)c1nc2ccc(-c3ccc(F)nc3)cc2s1 (centres unmarked) [Example 9, N-((5-((2,4-dioxo-thiazolidin-5-yl)methyl)-1,3,4-oxadiazol-2-yl)-(6-(6-fluoropyridin-3-yl)benzo[d]-thiazol-2-yl)-methyl)-acetamide]
9 | < 10 nM | Cc1noc(C)c1NC(=O)NC(c1nnc(CNS(N)(=O)=O)o1)c1nc2ccc(-c3ccc(F)nc3)cc2s1 (centres unmarked) [Example 8, 1-(3,5-dimethyl-4-isoxazolyl)-3-((6-(6-fluoro-3-pyridinyl)-1,3-benzothiazol-2-yl)(5-((sulfamoyl-amino)-methyl)1,3,4-oxadiazol-2-yl)methyl)urea]
10 | < 10 nM | O=C(NC(c1nnc(CS(=O)(=O)O)o1)c1nc2ccc(-c3ccccc3)cc2s1)C1CC1 (centres unmarked) [Example 18, (5-(cyclopropane-carboxamido-(6-phenylbenzo[d]-thiazol-2-yl)methyl)-1,3,4-oxadiazol-2-yl)methanesulfonic acid]
11 | < 10 nM | NS(=O)(=O)NCc1nnc(C(NC(=O)c2ccc(C(F)(F)F)cc2)c2nc3ccc(-c4ccccc4)cc3s2)o1 (centres unmarked) [Example 16, N-((6-phenylbenzo[d]-thiazol-2-yl)(5-((sulfamoylamino)-methyl)-1,3,4-oxadiazol-2-yl)methyl)-4-(trifluoromethyl)-benzamide]
12 | < 10 nM | CC(C)NC(=O)NC(c1nnc(CNS(N)(=O)=O)o1)c1nc2ccc(-c3ccccc3)cc2s1 (centres unmarked) [Example 15, 1-isopropyl-3-((6-phenyl-1,3-benzothiazol-2-yl)(5-((sulfamoylamino)-methyl)-1,3,4-oxadiazol-2-yl)methyl)urea]
13 | < 10 nM | NS(=O)(=O)NCc1nnc(C(NC(=O)c2ccc(C(F)(F)F)cc2)c2nc3ccc(-c4ccc(F)nc4)cc3s2)o1 (centres unmarked) [Example 2, N-((6-(6-fluoropyridin-3-yl)benzo[d]-thiazol-2-yl)(5-((sulfamoyl-amino)-methyl)-1,3,4-oxadiazol-2-yl)methyl)-4-(trifluoro-methyl)-benzamide]
14 | 131 nM | CC(=O)NC(c1nnc(CC2(C)NC(=O)NC2=O)o1)c1nc2ccc(-c3ccc(C(=O)N4CCOCC4)cc3)cc2s1 (centres unmarked) [Example 23, N-((5-((4-methyl-2,5-dioxoimidazolidin-4-yl)methyl)-1,3,4-oxadiazol-2-yl)(6-(4-(morpholine-4-carbonyl)phenyl)benzo[d]thiazol-2-yl)methyl)acetamide]
15 | < 10 nM | CC(=O)NC(c1nnc(CNS(N)(=O)=O)o1)c1nc2ccc(-c3ccc(F)nc3)cc2s1 (centres unmarked) [Example 10, N-((6-(6-fluoropyridin-3-yl)benzo[d]-thiazol-2-yl)(5-((sulfamoyl-amino)-methyl)-1,3,4-oxadiazol-2-yl)methyl)-acetamide]
16 | 277 nM | CC(=O)NC(c1nnc(C2CNC2)o1)c1nc2ccc(-c3ccccc3)cc2s1 (centres unmarked) [Example 25, N-((5-(azetidin-3-yl)-1,3,4-oxadiazol-2-yl)(6-phenylbenzo[d]thiazol-2-yl)methyl)acetamide]
17 | 25 nM | COc1nc(-c2nnc(C(NC(C)=O)c3nc4ccc(-c5ccccc5)cc4s3)o2)c(O)c(=O)[nH]1 (centres unmarked) [Example 24, N-((5-(5-hydroxy-2-methoxy-6-oxo-1,6-dihydropyrimidin-4-yl)-1,3,4-oxadiazol-2-yl)(6-phenylbenzo[d]thiazol-2-yl)methyl)acetamide]
18 | < 10 nM | NS(=O)(=O)NCc1nnc(C(NC(=O)c2cccnc2)c2nc3ccc(-c4ccc(F)nc4)cc3s2)o1 (centres unmarked) [Example 3, N-((6-(6-fluoropyridin-3-yl)benzo[d]-thiazol-2-yl)(5-((sulfamoyl-amino)-methyl)-1,3,4-oxadiazol-2-yl)methyl)-nicotinamide]
19 | < 10 nM | O=C1NC(=O)C(Cc2nnc(C(NC(=O)c3ccc(C(F)(F)F)cc3)c3nc4c(F)cc(-c5ccccc5)cc4s3)o2)S1 (centres unmarked) [Example 22]
20 | < 10 nM | NS(=O)(=O)NCc1nnc(C(NC(=O)NCc2ccccc2)c2nc3ccc(-c4ccc(F)nc4)cc3s2)o1 (centres unmarked) [Example 4, 1-benzyl-3-((6-(6-fluoro-3-pyridinyl)-1,3-benzothiazol-2-yl)(5-((sulfamoyl-amino)-methyl)-1,3,4-oxadiazol-2-yl)methyl)urea]
21 | < 10 nM | NS(=O)(=O)NCc1nnc(C(NC(=O)Nc2ccc(F)cc2)c2nc3ccc(-c4ccc(F)nc4)cc3s2)o1 (centres unmarked) [Example 7, 1-(4-fluoro-phenyl)-3-((6-(6-fluoro-3-pyridinyl)-1,3-benzothiazol-2-yl)(5-((sulfamoyl-amino)-methyl)-1,3,4-oxadiazol-2-yl)methyl)urea]
22 | < 10 nM | O=C1NC(=O)C(Cc2nnc(C(NC(=O)C3CC3)c3nc4c(F)cc(-c5ccccc5)cc4s3)o2)S1 (centres unmarked) [Example 21]
23 | < 10 nM | CC(=O)NC(c1nnc(CC2SC(=O)NC2=O)o1)c1nc2ccc(-c3ccnn3C)cc2s1 (centres unmarked) [Example 11, N-((5-((2,4-dioxo-thiazolidin-5-yl)methyl)-1,3,4-oxadiazol-2-yl)(6-(1-methyl-1H-pyrazol-5-yl)benzo[d]-thiazol-2-yl)methyl)-acetamide]

Reference: patent US9139578B2 (BRISTOL-MYERS SQUIBB COMPANY, priority 2012, dated 2015)
